Key:
[1] = CMC by surface tensiometry; format: physicochemical; conditions: Table 2
Source text: CMC measurements from DOSY experiments agree with previously reported surface tensiometry data for melibiosides and cellobiosides, as well as literature values for the glucosides.

[2] = literature; cited from earlier work
[3] = CMC determination by DOSY NMR (diffusion coefficients vs inverse concentration, linear regression); format: physicochemical; conditions: for CMC: DOSY, in D2O, Table 1; for CMC, DOSY (Diffusion Coefficients): Table 2
Description: Sample solutions were transferred (500 μL) to 5 mm NMR tubes for automated analysis via Bruker 400 MHz spectrometer. Gradient pulse strengths and delays were standardized for all experiments, with a pulse interval (δ) of 3 ms and diffusion interval (Δ) of 200 ms; these values were experimentally determined to ensure the arrayed diffusion data would provide a reasonable curve for accurate Dc determination.
Stacked data arrays were processed in MestReNova® by setting the appropriate value “k” standardized to known self-diffusion coefficients of the bulk solvent, then applying Bayesian DOSY transform to yield pseudo-2D spectra containing the ^1H NMR spectrum vs diffusion coefficients. Averaged values for samples at each concentration were plotted vs. the inverse concentration. Data points from monomeric and aggregated samples were identified by the first signs of decreasing Dc, and linear regression of the two sets provided an intercept estimated as the CMC. Slope and intercept errors were used to calculate error.
Linear regression of the data sets, i.e. monomers and aggregates, provided an intercept estimated as the CMC. […] CMC's decreased approximately a full order of magnitude when the hydrocarbon chain length increased by two methylene groups as described previously.

[4] = Table 2, marked (lit); cited from earlier work
[5] = Aggregate radius and aggregation number (Nagg) from DOSY diffusion data (Stokes-Einstein, spherical model); format: physicochemical; conditions: D2O
Description: The Stokes-Einstein equation provided estimated aggregate radii from the recorded diffusion coefficients. Further, Tanford's equations: lc≤lmax≈(0.154+0.1265n)nm and v≈(27.4+26.9n)×[…] nm^3 were used to calculate the critical volume (v) and maximum length (lmax) of the hydrocarbon tail based on the length of the lipid tail, n. Energy-minimized structures in MOE® were measured to find critical length (lc) values.
The average micelle radius (r) was calculated for each concentration of the surfactants (FIG. 9). Using molecular volume (V) calculations from MOE®, a spherical model was used to estimate aggregation numbers (Nagg) for each sample (FIG. 10). In general, these values correspond well to values determined by fluorescence quenching experiments. For samples such as decyl glucoside and dodecyl melibioside, Nagg values greater than 200 are representative of both the fact that larger aggregates will form at high concentrations, and that D2O (and 0.9% NaCl in H2O) induces the formation of higher order structures. Dodecyl melibioside is an example, where previous fluorescence quenching experiments show Nagg averages at 65 in concentrations over 20 mM. For these DOSY experiments Nagg is above 300 at only 5 mM, […], and more likely describing rod-like aggregates.

[6] = Solubility/precipitation behaviour in D2O, 0.9% NaCl and buffers
Description: NMR samples were prepared in triplicate by diluting concentrated stock solutions of the alkyl glycoside or SDS in D2O to concentrations below the known or estimated CMC values. For highly concentrated and/or insoluble samples, vials were warmed in an oil bath until the solution formed and was clear and cooled to RT. Precipitated samples were measured both before and after filtration of the precipitate to observe diffusion behavior. Solutions of the three glucosides were also prepared from 100 mM stock solutions of the glycolipid in dry CHCl3, with addition of D2O to aid solubility and aggregation. Soluble samples were analyzed to determine behavior in apolar conditions.

[7] = previous fluorescence quenching experiments, concentrations over 20 mM; cited from earlier work

Row | CMC, Surface Tens. [1] [mM] | CMC [3] [mM] | CMC, DOSY (Diffusion Coefficients) [3] [mM] | radius of "large" aggregates ([5]; samples containing precipitate) [Å] | radius of "small" aggregates ([5]; samples containing precipitate) [Å] | Nagg (aggregation number) ([5]; at 5 mM) | SMILES | a0 [Lit.] (headgroup area) [2] [Å^2] | CMC, Surface Tens. (lit) [4] [mM] | solubility / precipitation [6] | Nagg average (aggregation number) [7]
1 | 1.8 ± 0.2 | 1.8 ± 0.3 | 2.2 ± 0.7 | – | – | – | CCCCCCCCCCOC1O[C@H](CO)[C@@H](O[C@@H]2O[C@H](CO)[C@@H](O)[C@H](O)[C@H]2O)[C@H](O)[C@H]1O (some centres unmarked) [Decyl Cellobioside] | 50 | – | – | –
2 | 3.3 ± 0.2 | 3.9 ± 0.1 | 3.9 ± 0.1 | – | – | – | CCCCCCCCCCOC1O[C@H](CO[C@H]2O[C@H](CO)[C@H](O)[C@H](O)[C@H]2O)[C@@H](O)[C@H](O)[C@H]1O (some centres unmarked) [Decyl Melibioside] | 68 | – | – | –
3 | 0.18 ± 0.01 | – | 0.29 ± 0.4 | – | – | – | CCCCCCCCCCCCOC1O[C@H](CO)[C@@H](O[C@@H]2O[C@H](CO)[C@@H](O)[C@H](O)[C@H]2O)[C@H](O)[C@H]1O (some centres unmarked) [Dodecyl Cellobioside] | 49 | – | – | –
4 | 0.30 ± 0.02 | 0.3 ± 0.00 | 0.31 ± 0.005 | – | – | above 300 | CCCCCCCCCCCCOC1O[C@H](CO[C@H]2O[C@H](CO)[C@H](O)[C@H](O)[C@H]2O)[C@@H](O)[C@H](O)[C@H]1O (some centres unmarked) [Dodecyl Melibioside] | 51 | – | – | 65
5 | 19 ± 3 | 19.7 ± 2.2 | 21 ± 2 | – | – | – | CCCCCCCCOC1O[C@H](CO)[C@@H](O[C@@H]2O[C@H](CO)[C@@H](O)[C@H](O)[C@H]2O)[C@H](O)[C@H]1O (some centres unmarked) [Octyl Cellobioside] | 50 | – | – | –
6 | 44 ± 5 | 39.9 ± 5.2 | 40 ± 5 | – | – | – | CCCCCCCCOC1O[C@H](CO[C@H]2O[C@H](CO)[C@H](O)[C@H](O)[C@H]2O)[C@@H](O)[C@H](O)[C@H]1O (some centres unmarked) [Octyl Melibioside] | 73 | – | – | –

The next lines start with the compound.

Row | SMILES | CMC, Surface Tens. [1] [mM] | CMC [3] [mM] | CMC, DOSY (Diffusion Coefficients) [3] [mM] | radius of "large" aggregates ([5]; samples containing precipitate) [Å] | radius of "small" aggregates ([5]; samples containing precipitate) [Å] | Nagg (aggregation number) ([5]; at 5 mM) | a0 [Lit.] (headgroup area) [2] [Å^2] | CMC, Surface Tens. (lit) [4] [mM] | solubility / precipitation [6] | Nagg average (aggregation number) [7]
7 | CCCCCCCCCCO[C@@H]1O[C@H](CO)[C@@H](O)[C@H](O)[C@H]1O [Decyl Glucoside] | – | 1.9 ± 0.9 | 2.1 ± 0.7 | 90 | 40 | – | 42 | 2.2 | – | –
8 | CCCCCCCCCCCCO[C@@H]1O[C@H](CO)[C@@H](O)[C@H](O)[C@H]1O [Dodecyl Glucoside] | – | – | – | – | – | – | 34 | – | remained insoluble | –
9 | CCCCCCCCO[C@@H]1O[C@H](CO)[C@@H](O)[C@H](O)[C@H]1O [Octyl Glucoside] | – | 22.5 ± 2.4 | 20 ± 3 | – | – | – | 42 | 20 | – | –
10 | CCCCCCCCCCCCOS(=O)(=O)[O-].[Na+] [SDS, reference compound] | – | 8.5 ± 1.7 | 8.4 ± 2 | – | – | – | 61 | 8.2 | – | –

Source: patent US12478585B2, “Micelles and vesicles for the delivery of glycopeptides” (ARIZONA BOARD OF REGENTS ON BEHALF OF THE UNIVERSITY OF …, priority 2017, dated 2025)
